Test results published in patent publication US20130317046A1, “USE OF A DPP-4 INHIBITOR IN AUTOIMMUNE DIABETES, PARTICULARLY LADA” (BOEHRINGER INGELHEIM INTERNATIONAL GMBH, priority 2012, published 2013).
Marks after values point to notes of the source that are not given here.

Assays:
[1] = Safety and tolerability in people with type 2 diabetes
[2] = 2 h postprandial blood glucose excursions in patients with type 2 diabetes; format: in vivo, human; conditions: Day 1, doses ≧2.5 mg
[3] = HbA1c in GAD65+ LADA patients, two year double-blind randomized study linagliptin versus glimepiride on metformin; format: in vivo, human; conditions: GAD+ patients
Experimental: (§1) β-Cell function in latent autoimmune diabetes in adults (LADA) treated with linagliptin versus glimepiride: exploratory results from a two year double-blind, randomized, controlled study:
(§2) It is compared the impact of treatment with the DPP4-inhibitor linagliptin (lina) 5 mg/d and the sulphonylurea glimepiride (glim) 1-4 mg/d on β-cell function in patients retrospectively identified with LADA who had insufficient glycaemic control despite metformin therapy in a two year study.
(§3) Patients were classified as LADA if one or more of the autoantibodies assessed (GAD65, ICA, IA-2A, IAA) were present at baseline or any on-treatment visit. GAD was assessed using RIA methodology (cut-off 0.05 [sensitivity 82%/specificity 98.89% in the Diabetes Autoantibody Standardization Program 2010]).
(§4) The study cohort comprised 1519 patients (16 countries), with assumed common T2D. The prevalence of LADA was 7.8% (n=118). GAD65 was the most prevalent autoantibody (6.5%) whereas ICA (0.3%), IA-2A (1.2%) and IAA (0.2%) were rare. Proportion of patients with 2 positive antibodies was 0.4%. Baseline characteristics in GAD65+LADA patients treated with lina (n=65) or glim (n=53) were fairly well balanced (respective age 59/63 yrs, BMI 30.3/31.7 kg/m2 and diabetes duration >5 years 62%/59%).
(§5) HbA1c reductions were of similar magnitude in the groups.

[4] = Pharmacokinetics of BI 1356 after multiple oral doses once daily for 12 days in patients with type 2 diabetes; conditions: for feT,ss: steady state (Day 12); for feT,ss / fe0-24: gMean; for fe0-24: fraction excreted in urine
[5] = test system: β-cell function; assay: Fasting C-peptide (β-cell function) in GAD65+ LADA patients, two year double-blind randomized study linagliptin versus glimepiride on metformin; format: in vivo, human; design: Follow-up C-peptide / ΔC-peptide / Baseline C-peptide: unit not given here; conditions: for Follow-up C-peptide / ΔC-peptide / Baseline C-peptide: fasting, GAD+ patients; for Follow-up C-peptide: 52 weeks; for Follow-up C-peptide / Baseline C-peptide: lina 5 mg/d, glim 1-4 mg/d, on metformin
Experimental: as §1, §2, §3, §4, §5

[6] = change from baseline at 28 weeks
[7] = change from baseline at 52 weeks
[8] = change from baseline at 104 weeks

Row | SMILES | ΔHbA1c [3, 6] [%] | ΔHbA1c [3, 7] [%] | ΔHbA1c [3, 8] [%] | Baseline HbA1c ([3]; subset followed to 28 weeks) [%] | Baseline HbA1c ([3]; subset followed to 52 weeks) [%] | Baseline HbA1c ([3]; subset followed to 104 weeks) [%] | Follow-up C-peptide [5] | ΔC-peptide [5, 6] | ΔC-peptide [5, 7] | ΔC-peptide [5, 8] | Baseline C-peptide ([5]; subset followed to 28 weeks) | Baseline C-peptide ([5]; subset followed to 52 weeks) | Baseline C-peptide ([5]; subset followed to 104 weeks) | other results
1 | CC#CCn1c(N2CCC[C@@H](N)C2)nc2c1c(=O)n(Cc1nc(C)c3ccccc3n1)c(=O)n2C [BI 1356, 1-[(4-methyl-quinazolin-2-yl)methyl]-3-methyl-7-(2-butyn-1-yl)-8-(3-(R)-amino-piperidin-1-yl)-xanthine] | −0.25 | −0.49 | −0.41 | 7.62 | 7.50 | 7.40 | 978 | +96***## | +143***## | +202*** | 821 | 835 | 944 | safety and tolerability [1]: placebo-like safety and tolerability; decrease in 2 h postprandial blood glucose excursions [2]: 80%; feT,ss ([4]; 1 mg oral once daily): 3.34%; fe0-24 ([4]; 2.5 mg oral once daily): 0.139%; feT,ss ([4]; 2.5 mg oral once daily): 3.06%; fe0-24 ([4]; 5 mg oral once daily): 0.453%; feT,ss ([4]; 5 mg oral once daily): 6.27%; fe0-24 ([4]; 10 mg oral once daily): 0.919%; feT,ss ([4]; 10 mg oral once daily): 3.22%; mean accumulation ratio RA,AUC ([4]; doses above 1 mg): ≤ 1.4; form and route of excretion ([4]; human, in vivo): primarily excreted unchanged via the bile; excreted via the kidney ([4]; therapeutic oral dose levels): < 7 % of the administered oral dose; main route of excretion ([4]; therapeutic oral dose levels): mainly excreted via the liver; preservation of C-peptide ([5]; GAD65+ patients, over a 2 yr trajectory, versus glim): preserved C-peptide significantly better than those treated with glim
2 | CCC1=C(C)CN(C(=O)NCCc2ccc(S(=O)(=O)NC(=O)N[C@H]3CC[C@H](C)CC3)cc2)C1=O [Glim, glimepiride, reference compound] | −0.75 | −0.52 | −0.49 | 7.75 | 7.46 | 7.40 | 1246 | −105 | −179 | −29 | 1326 | 1425 | 1374 | 
